Measured values: patent US20240108740A1, “THERAPEUTIC COMPOSITIONS INCLUDING SPN10 AND USES THEREOF” (Stealth BioTherapeutics Inc., priority 2022, published 2024)
Residues, ends and D or L forms follow the SMILES beside them.

How the values were obtained:
[1] = tested on: CD1 mice; test: Example 52: ATP synthesis following a burn injury (^31P NMR, EPR); assay type: in vivo, mouse
Method: Material and Methods. Male 6-week-old CD1 mice weighing 20-25 g will be anesthetized by intraperitoneal (i.p.) injection of 40 mg/kg pentobarbital sodium. The left hind limb of all mice in all groups will be shaved. Burn subjects will be subjected to a nonlethal scald injury of 3-5% total body surface area (TBSA) by immersing the left hind limb in 90° C. water for 3 seconds.
NMR spectroscopy is described in detail in Padfield, et al., Proc. Natl. Acad. Sci., 102:5368-5373 (2005). Briefly, mice will be randomized into 1) burn+control vehicle, 2) burn+peptide conjugate, 3) non-burn+control vehicle, 4) non-burn+peptide conjugate, 5) burn+aromatic-cationic peptides, 6) non-burn+aromatic-cationic peptides, 7) burn+SPN10, 8) non-burn+SPN10, 9) burn+SPN10+aromatic-cationic peptides, and 10) non-burn+SPN10+aromatic-cationic peptides groups. […] T1 relaxation times of Pi and phosphocreatine (PCr) will be measured using an inversion recovery pulse sequence in the presence of γ-ATP saturation. […]

[2] = tested on: anatomic zone of no-reflow; test: No re-flow phenomenon after PCI in humans; assay type: in vivo, human; settings: at the time of reperfusion
Method: Study group. Men and women, 18 years of age or older, who present within 6 hours after the onset of chest pain, who have ST-segment elevation of more than 0.1 mV in two contiguous leads, and for whom the clinical decision is made to treat with PCI will be eligible for enrollment. Patients will be eligible for the study whether they are undergoing primary PCI or rescue PCI. Occlusion of the affected coronary artery (Thrombolysis in Myocardial Infarction [TIMI] flow grade 0) at the time of admission will also be a criterion for inclusion. Angiography and Revascularization. Left ventricular and coronary angiography will be performed with the use of standard techniques, just before revascularization. […] No re-flow will be assessed by one or more imaging techniques. Re-flow phenomenon will be assessed using myocardial contrast echocardiography, coronary angiography, myocardial blush, coronary doppler imaging, electrocardiography, nuclear imaging single-photon emission CT, using thallium or technetium-99 m, or PET. […] Post-contrast delayed enhancement will be used on day 4±1, day 30±3 and 6+1.5 months after successful PCI and stenting to quantify infracted myocardium. This will be defined quantitatively by an intensity of the myocardial post-contrast signal that is more than 2 SD above that in a reference region of remote, non-infarcted myocardium within the same slice. […]

Question: With `N=C(N)NCCC[C@H](NC(=O)[C@@H](N)Cc1c[nH]c2ccccc12)C(=O)N[C@@H](Cc1c[nH]c2ccccc12)C(=O)N[C@@H](CCCCN)C(N)=O` [SPN10, H-L-Trp-L-Arg-L-Trp-L-Lys-NH2] (H-WRWK-NH2) as the compound, how does the “ATP synthesis rate in burned mice” value ([1]; compared to burn controls) read?
Answer: significant increase in the ATP synthesis rate

Question: What about the “ATP synthesis rate in control healthy mice” value ([1]; non-burn) of the same compound?
Answer: increase ATP synthesis rate substantially

Question: What about the “anatomic zone of no-reflow versus placebo” value [2] of the same compound?
Answer: smaller
